Test results reported in PubChem BioAssay (NCI).
Several values for one entry are separate records, joined by “and”; a condition that tells them apart may be missing. Identical values can stand only once.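 All cell lines were grown in 96-well plates and treated with compound for 48 hours. GI50 marks 50% less growth. TGI denotes the concentration required for complete inhibition of growth.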

Tests used:
Experiment in all cases: NCI-60 cell line screen, 48 h
[1] = test system: HCT-15 colon
[2] = test system: U251 CNS
[3] = test system: UACC-257 melanoma
[4] = test system: T-47D breast
[5] = test system: MDA-MB-231 breast
[6] = test system: TK-10 renal
[7] = test system: SK-MEL-5 melanoma
[8] = test system: ACHN renal
[9] = test system: OVCAR-4 ovarian
[10] = test system: OVCAR-3 ovarian

SMILES	GI50 [1]	TGI [1]	GI50 [2] [µM]	TGI [2]	GI50 [3] [µM]	TGI [3]	GI50 [4] [µM]	TGI [4] [µM]	GI50 [5] [µM]	TGI [5]	GI50 [6] [µM]	TGI [6]	GI50 [7] [µM]	TGI [7]	GI50 [8] [µM]	TGI [8]	GI50 [9]	TGI [9]	GI50 [10] [µM]	TGI [10]
CNC(=O)c1cncc(/C=C/c2c(Cl)cccc2Cl)c1	> 22.4 µM	> 25 µM	> 25	> 25 µM	24.7	> 25 µM	> 18.1	> 25	> 15.8	> 25 µM	12.9	> 25 µM	14.5	> 25 µM	> 23.2	> 25 µM	21.9 µM	> 25 µM	20.9	> 25 µM
O=C1COCCN1c1ccc(NCc2cn(C(=O)c3ccc(Cl)cc3)c3ccccc23)cc1	4.07 µM	91.2 µM	1.19	25.8 µM	0.276	1.7 µM	0.264	83.8	4.61	22.9 µM	0.148	2.18 µM	4.1	16.3 µM	3.79	27.5 µM	0.494 µM	18.8 µM	1.21	12.5 µM
Cc1cc(Cl)ccc1Nc1nc(C(F)(F)F)ccc1C(=O)Nc1cccc(C(F)(F)F)c1	2.56 µM	7.35 µM	3	9.72 µM	3.2	11.6 µM	4.53	23.8	2.03	8.15 µM	4.4	21 µM	2.79	9.34 µM	2.75	9.01 µM	3.07 µM	11.3 µM	3.52	19.1 µM
O=C1C=C(OCCCl)C(=O)c2c(O)ccc(O)c21	1.4 µM	0.433 µM and 3.15 µM	2.76	3.33 µM and 7.48 µM	0.762	0.358 µM and 2.44 µM		4.52	3.29	3.27 µM and 8.96 µM	3	5.55 µM and 6.83 µM		0.321 µM and 0.299 µM	1.89	2.89 µM and 4.95 µM		3.01 µM and 3.1 µM	0.286	2.33 µM and 1.08 µM
O=C1NC(c2ccccc2)N=C2Oc3ccccc3C=C12 (stereo not drawn)		> 100 µM		> 100 µM		> 100 µM		> 100		> 31.6 µM		> 100 µM		> 100 µM		> 100 µM		> 100 µM		> 100 µM
C=C1C(=O)O[C@H]2[C@H]1CC/C(CNC(=O)/C=C/c1ccc(Cl)cc1Cl)=C\CC[C@@]1(C)O[C@@H]21	1.01 µM	2.33 µM	1.65	3.14 µM	1.21	2.58 µM	1.18	3.45	1.35	3.18 µM	1.55	2.9 µM	1.63	3.02 µM	1.13	2.48 µM	1.31 µM	3.01 µM	0.434	1.57 µM
CN(CCCN(C)CCC1CCCCC1)CCC1CCCCC1	2.02 µM	8.21 µM	1.97	7.48 µM	0.291	0.876 µM	1.64	4.15	1.38	4.68 µM	1.62	3.55 µM	1.32	2.61 µM	4	14.9 µM	3.35 µM	14.6 µM	3.95	15 µM
COc1cc2nncc(SCc3ccc(Cl)c(Cl)c3)c2cc1OC		> 100 µM		> 100 µM		> 100 µM		> 100		> 100 µM		> 100 µM		> 100 µM		> 100 µM		> 91.9 µM		> 100 µM
c1ccc(/C(=N\Nc2ccc3ccccc3n2)c2ccccn2)cc1	0.417 µM	14.8 µM	0.592	13 µM	0.33	3.48 µM	0.315	26	0.839	43.4 µM	0.372	5.31 µM	0.487	2.92 µM	0.49	8.78 µM	0.418 µM	> 100 µM	0.291	2.49 µM
CN(C)CC1=Nc2cccc3cccc(c23)N1		77.5 µM		32.5 µM		31 µM		24.6		34.7 µM		32.3 µM		28.7 µM		28.2 µM		26.6 µM		30.5 µM
CCc1nc(N)nc(N)c1C#CC(C)c1cc(-c2ccnc(C)c2)c2oc(C)nc2c1 (stereo not drawn)	< 0.01 µM	11.3 µM	< 0.01	11.9 µM		13.2 µM	0.283	8.5	0.527	16.9 µM	0.126	12 µM	< 0.01	1.49 µM	< 0.01	11 µM	4.54 µM	26.4 µM	0.0893	15 µM
Clc1ccc(/C=C/c2nc(Cl)c(-c3ccc(Cl)cc3)c(Cl)n2)cc1		> 100 µM		> 100 µM		> 100 µM		> 100		> 100 µM		> 100 µM		> 100 µM		> 100 µM		> 100 µM		> 100 µM
C=C(C)C(=O)O[C@H]1CC2=CC(CC(C)=C[C@H]3OC(=O)C(=C)C13)OC2=O (stereo partly drawn)		25.6 µM		> 100 µM		96.3 µM		36.9		60.8 µM		22.6 µM		> 100 µM		27.6 µM		> 100 µM		70.5 µM
COC1OC(C(C)O)C2OC(C)(C)OC12 (stereo not drawn)		> 100 µM		> 100 µM		> 100 µM		> 100		> 100 µM		> 100 µM		> 100 µM		> 100 µM		> 100 µM		> 100 µM
c1ccc2c(CN3CCC(C4CCN(Cc5cccc6ccccc56)CC4)CC3)cccc2c1	2.95 µM and 8.46 µM	16.6 µM and > 100 µM		25.5 µM and 47.6 µM		4.25 µM and 11.9 µM		89.1		> 74.1 µM		42.8 µM and > 31.6 µM		14.2 µM and 9.41 µM		> 100 µM	13.6 µM and 35.9 µM	38.2 µM and > 100 µM		> 100 µM
